Laboratory results published in PMC9867347, “An Acid-Sensitive Bone Targeting Delivery System Carrying Acacetin Prevents Osteoporosis in Ovariectomized Mice” (Pharmaceuticals, 2022).
Ends that are not written are not given here.

Legend:
LC3II = experiment: Western blotting, LC3II (autophagy); format: cell-based, C57BL/6J mice; conditions: BMMs, RANKL and M-CSF, 6 h
Protocol: (§1) RIPA lysate (50 × protease inhibitor, 50 × phosphatase inhibitor) was used to extract total protein from the cells. Then, 20 μg protein or protein marker per lane (PageRuler ™ (ThermoFisher Scientific, Waltham, MA, USA) Prestained Protein Ladder 10kD-180KD or HiMark™ (ThermoFisher Scientific, Waltham, MA, USA) Pre-stained Protein Standard 31 kd-460 kd) was loaded onto an SDS gel (30% Acrylamide, 1.5 M Tris-HCl, 10% SDS, 10% Ammonium persulfate and TEMED) and subjected to electrophoresis and transferred to a polyvinylidene fluoride membrane. The membrane was blocked with 5% BSA for 4 h and incubated with the specific primary antibody overnight at 4 °C. Then, the membrane was incubated with a secondary antibody (IRDye) for 1 h at room temperature. Bio-Rad ChemiDoc MP imaging system (Bio-Rad Laboratories, Hercules, CA, USA) was used to visualize protein bands and ImageJ software was used to calculate relative protein expression based on grayscale blots.
(§2) Antibodies including p-AKT (Ser473; #4060), AKT (#4691), LC3A/B Antibody (#4108), p-mTOR (Ser2448; #5536), mTOR (#2983), c-Fos (#2250), NFATc1 (#8032), p-PI3K (#4228), PI3K (#4249), and GAPDH (#5174) were purchased from Cell Signalling Technology (Denver, MA, USA).

c-Fos and NFATc1 = experiment: Western blotting, c-Fos and NFATc1; format: cell-based, C57BL/6J mice; conditions: BMMs, RANKL and M-CSF, 3 days
Protocol: as §1, §2

OVX mice = experiment: OVX mouse model of osteoporosis; format: in vivo, C57BL/6J mice; conditions: for anti-osteoporotic effects (OVX-induced bone loss; BMD and BV/TV, micro-CT of tibia): i.p. 5 mg/kg/3 day for 5 weeks
[1] = system: BMMs stimulated with RANKL and M-CSF; experiment: Bone resorption assay (Osteo Assay Surface plate); format: cell-based, C57BL/6J mice
Protocol: In brief, the hind limbs of C57BL/6J mice were used to isolate bone marrow cells and cultured in α-MEM containing 10% FBS and 1% penicillin-streptomycin for one day to generate BMMs as described previously; 25 ng/mL M-CSF (416-ML-010/CF, R&D Systems, Minneapolis, MN, USA) and 50 ng/mL RANKL (462-TR-010/CF, R&D Systems, Minneapolis, MN, USA) were used for the preparation of osteoclasts.
Assays for bone resorption were performed using Corning Osteo Assay Surface plate (Sigma-Aldrich, Hongkong, China). We analyzed bone resorption pits with a light microscope and quantified pits area using Image J software (NIH, Bethesda, MD, USA).

[2] = system: BMMs stimulated with RANKL and M-CSF; experiment: TRAP staining, osteoclast differentiation; format: cell-based, C57BL/6J mice; conditions: 7 days
Protocol: In brief, the hind limbs of C57BL/6J mice were used to isolate bone marrow cells and cultured in α-MEM containing 10% FBS and 1% penicillin-streptomycin for one day to generate BMMs as described previously; 25 ng/mL […] Systems, Minneapolis, MN, USA) and 50 ng/mL […] Systems, Minneapolis, MN, USA) were used for the preparation of osteoclasts. […] TRAP-positive multinucleated osteoclasts (≥3 nuclei) were counted using a TRAP kit (Zhejiang Zhuoteng Biological, Shaoxing, China) according to the manufacturer's instructions. BMMs were induced by RANKL (50 ng/mL) and M-CSF (25 ng/mL) in the presence of acacetin (25 μM) and rapamycin (50 nmol/L) for 7 days. TRAP-positive multinucleated osteoclasts (≥3 nuclei) were counted.

[3] = statement of the design section, reference not given; cited from earlier work
From the text: The next step is the identification of bone-targeting peptides. Bone tissue, as a special connective tissue, consists of a variety of cells and intercellular bone matrix, with high inorganic salt content which is mainly composed of HA. In recent years, more and more peptide sequences with excellent bone-targeting ability have been discovered. Compared with bone-targeting small molecules, these peptides have more specific mechanisms, high affinity and low side effects. Considering that acacetin has an excellent inhibitory effect on osteoclasts, we selected […] ...

[4] = system: ovariectomized (OVX) mice; conditions: 20 mg/kg/day for 8 weeks; ref 11 (Lin et al.); cited from earlier work
From the text: (§3) Osteoporosis following the estrogen withdrawal of menopause is a serious global clinical problem with a significant increase in the risk of fractures. Supplementation of estrogen is not recommended for the long-term treatment of postmenopausal bone loss because of the increased risk of breast cancers and cardiovascular events. Pure compounds isolated from natural products are emerging as potential therapeutics for postmenopausal osteoporosis. Acacetin is a di-hydroxy and mono-methoxy flavone widely distributed in various plants including the Acacia tree, black locust, and ...

[5] = plasma, after intravenous administration; cited from earlier work
From the text: as §3

PI3K/AKT/mTOR pathway = experiment: Western blotting, PI3K/AKT/mTOR phosphorylation; format: cell-based, C57BL/6J mice; conditions: BMMs, RANKL and M-CSF, acacetin 25 μM, 6 h, n = 3
Protocol: as §1, §2

BMMs = experiment: Cytotoxicity assay (CCK-8); format: cell-based, C57BL/6J mice; conditions: 48 h and 96 h, CCK-8, n = 6
Protocol: In brief, the hind limbs of C57BL/6J mice were used to isolate bone marrow cells and cultured in α-MEM containing 10% FBS and 1% penicillin-streptomycin for one day to generate BMMs as described previously; 25 ng/mL […] Systems, Minneapolis, MN, USA) and 50 ng/mL […] Systems, Minneapolis, MN, USA) were used for the preparation of osteoclasts. […] The medium was changed every 2 days. After 48 h and 96 h of culture, CCK8 reagent (10 μL/well, Dojindo, Kumamoto, Japan) was added to each well. Then, the cells were incubated in darkness at 37 °C for 2 h. The absorbance was recorded using a microplate reader (Thermo Fisher Scientific, Waltham, MA, USA) at 450 nm.

[6] = system: mRNA expression of TRAP, NFATc1, and CTSK; experiment: RT-PCR of osteoclast genes; format: cell-based, C57BL/6J mice; conditions: BMMs, RANKL and M-CSF, 12.5, 25 μM, 3 days, n = 3
Protocol: The total RNA was extracted from cells or tissues using TRIzol reagent (Thermo Fisher Scientific, Waltham, MA, USA) according to the manufacturer’s instructions. PrimeScript^TM RT Master Mix (RR036Q, Takara, San Jose, CA, USA) was used to reverse transcribe 1 μg of total RNA extracted into complementary DNA (cDNA) for subsequent RT-PCR reactions using qTOWER real-time PCR thermal cycler (Analytik Jena, Jena, Germany).

[7] = Hydroxyapatite (HA) binding assay; conditions: 800 μM, 4 mM sodium phosphate, 150 mM sodium chloride, pH 7.4, 15 mg HA, 37 °C, 0-80 min, HPLC
Protocol: Acacetin-EMCH-D6 and acacetin were dissolved, respectively, in a buffer containing 4 mM sodium phosphate and 150 mM sodium chloride (pH = 7.4), to a final concentration of 800 μM; 15 mg of HA was added and incubated in a 37 °C water bath; 20 μL aliquots were taken after 0, 10, 20, 40, and 80 min and quantified by HPLC.

[8] = acacetin 25 μM and rapamycin 50 nmol/L
[9] = Acacetin-EMCH-D6 17.5 μmol/kg and rapamycin 1 mg/kg i.p. every 3 days, 5 weeks, at least in part
[10] = Acacetin-EMCH-D6 17.5 μmol/kg and rapamycin 1 mg/kg i.p. every 3 days, 5 weeks, proximal tibia
[11] = i.p. 17.5 μmol/kg every 3 days for 5 weeks
[12] = i.p. 17.5 μmol/kg every 3 days for 5 weeks, n = 6

CO[C@H]1C[C@@H]2CC[C@@H](C)[C@@](O)(O2)C(=O)C(=O)N2CCCC[C@H]2C(=O)O[C@H]([C@H](C)C[C@@H]2CC[C@@H](O)[C@H](OC)C2)CC(=O)[C@H](C)/C=C(\C)[C@@H](O)[C@@H](OC)C(=O)[C@H](C)C[C@H](C)/C=C/C=C/C=C/1C [rapamycin]
effect of rapamycin co-treatment on inhibition of LC3II protein levels by acacetin (LC3II; [8]): abolished
effect of rapamycin co-treatment on downregulation of NFATc1 protein by acacetin (c-Fos and NFATc1; [8]): partially reversed
effect of rapamycin co-treatment on downregulation of c-Fos protein by acacetin (c-Fos and NFATc1; [8]): partially reversed
effect of rapamycin co-treatment on BMD augmentation by Acacetin-EMCH-D6 (OVX mice; [9]): reversed
effect of rapamycin co-treatment on BV/TV augmentation by Acacetin-EMCH-D6 (OVX mice; [9]): reversed
effect of rapamycin co-treatment on Tb.N augmentation by Acacetin-EMCH-D6 (OVX mice; [9]): reversed
effect of rapamycin co-treatment on Tb.Sp reduction by Acacetin-EMCH-D6 (OVX mice; [9]): reversed
effect of rapamycin co-treatment on reduction of LC3 dots by Acacetin-EMCH-D6 (OVX mice; [10]): partly reversed
effect of rapamycin co-treatment on reduction of TRAP-positive osteoclasts by Acacetin-EMCH-D6 (OVX mice; [10]): partly reversed
effect of rapamycin co-treatment on inhibition of bone resorption by acacetin ([1]; RANKL and M-CSF, acacetin 25 μM and rapamycin 50 nmol/L, 3 days): partly reversed
effect of rapamycin co-treatment on inhibition of osteoclast differentiation by acacetin (TRAP assay) ([2]; RANKL and M-CSF, acacetin 25 μM and rapamycin 50 nmol/L): partly reversed

DDDDDD [D6, medium-length polyaspartic acid, bone targeting peptide]
HA affinity [3]: comparable to tetracycline and calcein

COc1ccc(-c2cc(=O)c3c(O)cc(O)cc3o2)cc1 [acacetin]
bone loss in ovariectomized (OVX) mice [4]: protected against bone loss
terminal half-life [5]: 1.48 h
RANKL+M-CSF-induced reduction of AKT phosphorylation (PI3K/AKT/mTOR pathway): reversed
RANKL+M-CSF-induced reduction of PI3K phosphorylation (PI3K/AKT/mTOR pathway): reversed
RANKL+M-CSF-induced reduction of mTOR phosphorylation (PI3K/AKT/mTOR pathway): reversed
RANKL+M-CSF-induced increase of LC3II protein levels (LC3II; acacetin 25 μM, n = 3): reversed
cell viability (BMMs; dose more than 50 μM): reduced cell viability
cell viability (BMMs; dose of 6.25, 12.5, and 25 μM): did not affect cell viability
protein expression of NFATc1 (c-Fos and NFATc1; acacetin 25 μM): downregulated
protein expression of c-Fos (c-Fos and NFATc1; acacetin 25 μM): downregulated
BMD, proximal tibia and L5 vertebra (micro-CT), OVX-induced change (OVX mice; [11]): no significant effect
BV/TV, proximal tibia and L5 vertebra (micro-CT), OVX-induced change (OVX mice; [11]): no significant effect
Tb.N, proximal tibia and L5 vertebra (micro-CT), OVX-induced change (OVX mice; [11]): no significant effect
Tb.Sp, proximal tibia and L5 vertebra (micro-CT), OVX-induced change (OVX mice; [11]): no significant effect
number of TRAP-positive cells, proximal tibia (OVX-induced increase) (OVX mice; [11]): did not affect the histological changes
plasma CTX-1 levels (OVX mice; [12]): no significant effect
trabecular density and thickness, proximal tibia (H&E staining) (OVX mice; [12]): did not affect the histological changes
anti-osteoporotic effects (OVX-induced bone loss; BMD and BV/TV, micro-CT of tibia) (OVX mice; n = 6, Figure S1, 5 mg/kg): did not observe its anti-osteoporotic effects
anti-osteoporotic effects (OVX-induced bone loss; BMD and BV/TV, micro-CT of tibia) (OVX mice; n = 6, Figure S1, listed as Acacetin, 5 mg/kg): no effect on OVX-induced bone loss
area of bone resorption pits ([1]; RANKL 50 ng/mL and M-CSF 25 ng/mL, 12.5, 25 μM added for 3 days after immature osteoclasts formed, n = 3): significantly diminished
mRNA expression of CTSK [6]: suppressed
mRNA expression of NFATc1 [6]: suppressed
mRNA expression of TRAP [6]: suppressed
binding to hydroxyapatite (HA) [7]: very weak binding
number of TRAP-positive osteoclasts (nuclei ≥ 3) ([2]; RANKL 50 ng/mL and M-CSF 25 ng/mL, 12.5, 25 μM, n = 3): significantly diminished
